Data set [1] has as its target T1, strychnine insensitive glycine binding site associated with the NMDA receptor complex (Rattus norvegicus, UniProt P35439).
T1 construct: from tissue
As to the kind of experiment: affinity for the strychnine insensitive glycine binding site (procedure of Kishimoto H. et al). How it is done: Thus the ability to bind at the strychnine insensitive glycine binding site was determined using the procedure of Kishimoto H et al., J Neurochem 1981, 37, 1015-1024.
The affinity of the compound of the invention for the strychnine insensitive glycine binding site was determined using procedure of Kishimoto H. et al […].

The next data set has as its system formalin-induced pain. As to the kind of experiment: formalin test in mouse (licking time of injected paw). The format is in vivo. Particulars: administered orally 1 hour before formalin injection. How it is done:
The ability of compounds of the invention to inhibit pain in mouse has been assessed in the formalin test as described by Dubuisson and Dennis (Pain, 1977, 4:161-174). In this test 20 μl of 1% formalin was injected into the plantar surface of the mouse left hind paw. The amount of time, in seconds, the animals spent licking the injected paw for the first 5 minutes (early phase) and then from 20 to 60 minutes (late phase) after formalin was used as measurement of the intensity of pain. The compounds of the invention were administered orally 1 hour before formalin injection.

The values below come from patent publication US6495566B2, “Tetrahydroquinoline derivatives as glycine antagonists” (Smithkline Beecham Corporation, priority 1998, dated 2002).

As a reminder, the Ki is a measure of affinity in units of concentration, obtained from inhibition or displacement. For orientation: melting point means the temperature of the solid-liquid transition.

The compound `CC(=O)Nc1ccc(N2CCC(=C3CC(C(=O)O)Nc4cc(Cl)ccc43)C2=O)cc1` (racemic) [Example 25, (+/−)-7-chloro-4-(2-oxo-1-(4-acetylamino)phenyl-pyrrolidin-3-ylidene)-1,2,3,4-tetrahydro-2-quinolinecarboxylic acid] had a Ki in data set [1] of 70.8 nM. That is a double-digit nanomolar value. The same measure, in the same setting: the result for `O=C(O)C1CC(C2=CCCN(c3ccccc3)C2=O)c2ccc(Cl)cc2N1` (racemic) [Example 15, (±)-Sodium 7-chloro-4-(1-phenyl-Δ^3-5,6-dihydro-pyridin-2-one-3yl)-1,2,3,4-tetrahydroquinoline-2-carboxylate] reads 18.6 nM. Regarding `O=C(O)C1CC(C2=CCN(c3ccccc3)C2=O)c2ccc(Cl)cc2N1` (single isomer, unassigned; (+)) [Example 17, (+)Sodium7-chloro-4-(1-phenyl-Δ^3pyrrolin-2-one-3yl)-1,2,3,4-tetrahydroquinoline-2-carboxylate], the “ED50 (dose required to reduce the licking time by 50%)” value in the data set with formalin-induced pain came out at 0.3 mg/kg po. In data set [1], this compound had a Ki of […]. In data set [1], `O=C(O)C1CC(C2=CCN(c3ccccc3)C2=O)c2c(Cl)cc(Cl)cc2N1` (racemic) [Example 16, (±)-Sodium 5,7-dichloro-4-(1-phenyl-Δ^3-pyrrolin-2-one-3yl)-1,2,3,4-tetrahydroquinoline-2-carboxylate] showed a Ki of 15.8 nM.

In the case of `O=C(O)C1CC(C2=CCN(c3ccccc3)C2=O)c2c(Cl)cc(Cl)cc2N1` (stereo not shown) [Example 29, Sodium, 5,7-Dichloro-4-(2-oxo-1-phenyl-Δ^3-pyrrolin-2-one-3-yl)-1,2,3,4-tetrahydro-quinoline-2-carboxylic acid; (enatiomer A)], the Ki in data set [1] is 2 nM. Take `CC(=O)Nc1ccc(N2CC=C(C3CC(C(=O)O)Nc4cc(Cl)ccc43)C2=O)cc1` (racemic) [Example 18, (+/−)-7-chloro-4-(1-(4-acetylamino)-phenyl-Δ^3-pyrrolin-2-one-3yl)-1,2,3,4-tetrahydroquinoline-2-carboxylic acid]: the affinity in data set [1] corresponds to a Ki of 16.6 nM.

In data set [1], `CS(=O)(=O)Nc1ccc(N2CC=C(C3CC(C(=O)O)Nc4cc(Cl)ccc43)C2=O)cc1` (racemic) [Example 19, (+/−)7-chloro-4-(1-(4-methanesulfonylamino)-phenyl-1-Δ^3-pyrrolin-2-one-3yl)-1,2,3,4-tetrahydroquinoline-2-carboxylic acid] had a Ki of 1.26 nM. Still for that read-out and setting: the result for `O=C(O)C1CC(=C2CCN(c3ccccc3)C2=O)c2c(Cl)cc(Cl)cc2N1` (stereo not shown) [Example 30, Sodium 5,7-dichloro-4-(2-oxo-(1-phenyl)pyrrolidin-3-ylidene)-1,2,3,4-tetrahydro-2-quinoline carboxylate(enatiomer A)] reads 20 nM. In turn, `O=C(O)C1CC(=C2CCCN(c3ccccc3)C2=O)c2ccc(Cl)cc2N1` (racemic) [Example 23, (±)-7-chloro-4-(2-oxo-1-phenyl-3-piperidinylidene)-1,2,3,4-tetrahydro-2-quinolinecarboxylic acid] came in with a melting point greater than 130 °C.

On to `O=C(O)C1CC(=C2NC(=O)N(c3ccccc3)C2=O)c2ccc(Cl)cc2N1` (racemic) [Example 24, (±)-7-chloro-4-(2,5-dioxo-1-phenyl-imidazolidin-4-ylidene)-1,2,3,4-tetrahydro-2-quinolinecarboxylic acid], for which the Ki in data set [1] is 15.8 nM. The same measure, in the same setting: the figure for `O=C(O)C1CC(C2=CCN(c3ccccc3)C2=O)c2ccc(Cl)cc2N1` (racemic) [Example 1, (±)Sodium 7-chloro-4-(1-phenyl-Δ^3-pyrrolin-2-one-3yl)-1,2,3,4-tetrahydroquinoline-2-carboxylate] is […]; for `O=C(O)C1CC(=C2CCN(c3cccnc3)C2=O)c2ccc(Cl)cc2N1` (racemic) [Example 22, (±)-Sodium 7-chloro-4-(2-oxo-1-(pyridn-3yl)-pyrrolidin-3-ylidene)-1,2,3,4-tetrahydro-2-quinolinecarboxylate] it is 12.6 nM.

`O=C(O)C1CC(C2=CCN(c3cccnc3)C2=O)c2ccc(Cl)cc2N1` (racemic) [Example 14, (±)-Sodium 7-chloro-4-(1-(3-pyridin)-Δ^3-pyrrolin-2-one-3yl)-1,2,3,4-tetrahydroquinoline-2-carboxylate] had a Ki in data set [1] of 12.6 nM.

For the compound `O=C([O-])C1CC(=C2CCN(c3ccccc3)C2=O)c2ccc(Cl)cc2N1.[Na+]` (single isomer, unassigned; (-)) [Example 21, (−)-Sodium 7-chloro-4-(2-oxo-1-phenyl-3-pyrrolidinylidene)-1,2,3,4-tetrahydro-2-quinolinecarboxylate], in the data set with formalin-induced pain, the “ED50 (dose required to reduce the licking time by 50%)” value is listed as 0.14 mg/kg po.

For the compound `O=C([O-])C1CC(C2=CCN(c3ccccc3)C2=O)c2ccc(Cl)cc2N1.[Na+]` (single isomer, unassigned; (-)) [Example 2, (−)-Sodium 7-chloro-4-(1-phenyl-Δ^3-pyrrolin-2-one-3yl)-1,2,3,4-tetrahydroquinoline-2-carboxylate], the “ED50 (dose required to reduce the licking time by 50%)” value in the data set with formalin-induced pain worked out at 0.03 mg/kg po.
